Experimental data: patent US5212072A, “Polypeptides complementary to peptides or proteins having an amino acid sequence or nucleotide coding sequence at least partially known and methods of design therefor” (Board of Regents, The University of Texas System, priority 1991, dated 1993)
“And” between values parts separate entries of the source, which are not always exact repeats. Identical values can stand only once. Where no end group is shown, it is not given here.

Key:
[1] = system: LHRH-stimulated release of LH from pituitary cells; assay: Reverse hemolytic plaque assay, LHRH-stimulated LH release from pituitary cells; format: cell-based, rat; settings: Exp. 1 (Pre); 5x10^-10 M LHRH + peptide 10^-4 M
Method: A reverse hemolytic plaque assay (Smith, et al.), Method in Enzymology, 124, p.
Plaques were analyzed by determining plaque area with an image analysis (Bioguant or Image Technology Corp. Model 300) of ^125×-500 × microscopic enlargements.

I^125 ACTH (1-39) = target: T1, I^125 ACTH (1-39) (Homo sapiens, UniProt P01189); assay: 125I-ACTH binding to peptide-coated microtiter wells; settings: for Bound CPM 125I-ACTH: coated wells; for Bound CPM 125I-ACTH + excess ACTH: excess unlabelled ACTH
T1 construct: I^125 ACTH (1-39) (New England Nuclear Boston, Mass.); purchased New England Nuclear, Boston, Mass
T1 sequence (P01189 138-176 limits assumed): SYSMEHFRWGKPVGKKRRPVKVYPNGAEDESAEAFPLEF
Method: Utilizing techniques described in Example 1B, polyvinyl microtiter wells were coated with 3'-5' HTCA from a 1 mM solution thereof or with BSA.
The BSA and 3'-5' HTCA coated wells were washed and then treated with one of three solutions of I^125 ACTH (1-39) (New England Nuclear Boston, Mass.) having different concentrations. After a forty five minute incubation period the solution was removed and the microtiter wells extensively washed. The microtiter wells were separated and assayed for iodine^125 content in a Beckman Gamma 5500 gamma counter. Bound ^125 I-ACTH was measured in duplicate at three concentrations in the absence and presence of excess unlabelled ACTH.
Utilizing the cRNA sequence and HTCA sequence shown in Table 8 of Example 1A, a series of peptides having a carboxy-terminal portion of the HTCA amino acid were synthesized. A pentamer (5-mer) contained the amino acid sequence: H^2 N-Phe-His-Gly-Val-Arg-COOH. A decamer (10-mer) contained the amino acid sequence: H^2 N-[…]COOH. A twenty membered peptide (20-mer) contained the amino acids sequence: H2 N-[…] Val-ArQ-COOH. Each of these peptides was used to coat microtiter wells and the coated wells tested for the ability to hind ^125 I-ACTH as described in Example 1C.
A 24-mer HTCA variant (R-HTCA) with reversed amino acid sequence directionality (amino-terminal and carboxy-terminal ends being reversed) was synthesized and had the following sequence: H2 N-[…] Arg-His-Leu-His-Val-Gly-COOH. The well-coating and ^125 I-ACTH binding procedures were performed as described in Example 1-C and the resultant data shown in Table 11.

angiotensin II receptors = assay: Binding of [125I] angiotensin II to isolated hepatic receptor; set-up: species or system Rabbit; settings: concentration inhibiting binding of radiolabelled angiotensin II by 50%; 0.25 nM [125I] angiotensin II; 60 minutes 20 C
Method: Inhibition of angiotensin II binding to angiotensin II receptors by complementary peptides was tested with measurement through the use of radioactive angiotensin II. Rabbit livers were homogenized, and were centrifuged in order to isolate particles sedimenting between 1,000 and 100,000 xg. Binding activity was solublized with 1% digitonin, followed by ammonium sulfate fractionation between 49 and 65% satuation followed by DEAE- cellulose chromatography at pH 7.5 using a linear gradient between 0.0 and 0.3 M KCl. The partially purified, solubilized receptor preparation bound 17 pmoles of angiotensin II per […] protein when analyzed by Scatchard analysis, indicating a purity of approximately 0.1%.
The standard assay for binding of angiotensin II to the receptor is as follows: The complete system (150 ul) contains 30 mM Tris-HCl, pH 7.5, 2.5 mM K2 EDTA, 0.2 mM PCMS, 0.25 nM [^125 I] angiotensin II ca. 100,000 cpm), 100 ug BSA, 0.25% (V/V) Brij 99 and 30 ug of partially purified receptor. […] Tubes are vortexed and then allowed to stand 10 minutes at 4° C., after which they are centrifuged and their supernatants, containing protein-bound angiotensin II, are counted.
The complete system under these conditions regularly yields about 10,000 cpm of bound radioactivity. […] Residual binding of radioactivity in this control was 35-45%. […]

ACTH (1-24) = target: T2, ACTH (1-24) (Homo sapiens, UniProt P01189); assay: ELISA binding of ACTH (1-24) to HTCA-coated microtiter wells
T2 construct: 10 ug synthetic ACTH (1-24) in PBS-Tween buffer; purchased Organon (West Orange, N.J.); host or cells: chemical synthesis
Method: From 1 to 25 micrograms (ug) per well of HTCA or insulin in carbonate-bicarbonate coating buffer were added to 96 well round bottom microtiter plates and incubated at 4° C. for 8 hr. The plates were then washed with phosphate buffered saline PBS)-Tween 20 (Sigma Chemical Co., St. Louis, Mo.) buffer.
To the insulin-coated wells and to some of the HTCA-coated wells was added 10 ug synthetic ACTH (1-24) in PBS-Tween buffer. Control wells (HTCA alone) contained only PBS-Tween. The plates were incubated at room temperature for 2 hr. and then washed three times with PBS-Tween buffer. […] Following 3 washes with PBS-Tween buffer, alkaline phosphatase-conjugated goat anti-rabbit Ig G (Miles Laboratories, Elkharbt, Ind.) in PBS-Tween buffer (1:300 dilution was added. After inculation at room temperature for 1 hr, the plates were washed three times with PBS-Tween buffer and each well was treated with 200 microliters (ul) of p-nitrophenyl phosphate (1 mg/ml in carbonate-bicarbonate buffer) for 11/2 hr. at room temperature. The enzymatic reaction was then stopped by the addition of 3N NaOH (50 ul) to each well and the optical absorbance of p-nitrophenol the alkaline phosphatase product, was measured at 405 nm. The ACTH bound to the coated microtiter wells was measured by this enzyme-linked immunoabsorbent assay (EL1SA). […]

Row | Compound | Bound CPM 125I-ACTH (I^125 ACTH (1-39); 1:3 dilution 125I-ACTH) | Bound CPM 125I-ACTH + excess ACTH (I^125 ACTH (1-39); 1:3 dilution 125I-ACTH) | Bound CPM 125I-ACTH (I^125 ACTH (1-39); 1:9 dilution 125I-ACTH) | Bound CPM 125I-ACTH + excess ACTH (I^125 ACTH (1-39); 1:9 dilution 125I-ACTH) | Bound CPM 125I-ACTH (I^125 ACTH (1-39); conc 125I-ACTH) | Bound CPM 125I-ACTH + excess ACTH (I^125 ACTH (1-39); conc 125I-ACTH) | further results
1 | C[C@H](N)C(=O)NCC(=O)N[C@H]1CSSC[C@@H](C(=O)O)NC(=O)[C@H](CO)NC(=O)[C@H]([C@@H](C)O)NC(=O)[C@H](Cc2ccccc2)NC(=O)[C@H]([C@@H](C)O)NC(=O)[C@H](CCCCN)NC(=O)[C@H](Cc2c[nH]c3ccccc23)NC(=O)[C@H](Cc2ccccc2)NC(=O)[C@H](Cc2ccccc2)NC(=O)[C@H](CC(N)=O)NC(=O)[C@H](CCCCN)NC1=O [Somatostatin] |  |  |  |  |  |  | plaque area, percentage response to control (5x10^-10 M LHRH) [1]: 103%
2 | APAEVFHGVR [10-mer] | 3391 CPM and 2931 CPM | 132 CPM and 143 CPM | 872 CPM and 1062 CPM | 62 CPM and 58 CPM | 8,927 CPM and 9,072 CPM | 345 CPM and 350 CPM | 
3 | Ac-KGVYIHAL-NH2 [CCA-AII (Ac, Am), Ac--LYS--GLY--VAL--TYR--ILE--HIS--ALA--LEU--Am] |  |  |  |  |  |  | ID50 (angiotensin II receptors): 3,100 nM
4 | FHGVR [5-mer, H^2 N-Phe-His-Gly-Val-Arg-COOH] | 3,514 CPM and 3,655 CPM | 97 CPM and 95 CPM | 995 CPM and 993 CPM | 56 CPM and 52 CPM | 10,252 CPM and 11,388 CPM | 233 CPM and 245 CPM | 
5 | GLUGLU-VAL-LYS-GLY-VAL-TYR-ILE-HIS-ALA-LEU (EEVKGVYIHAL; printed: GLUGLU-VAL-LYS-GLY-VAL-TYR-ILE-HIS-ALA-LEU) [CCA-AI] |  |  |  |  |  |  | ID50 (angiotensin II receptors): 490 nM
6 | GVHLHRAPLLAHRLAPAEVFHGVR [HTCA] |  |  |  |  |  |  | specific part of ACTH-HTCA binding (ACTH (1-24); wells coated 3.7 nmol/well HTCA, ELISA): about 90%
7 | HRAPLLAHRLAPAEVFHGVR [20-mer] | 613 CPM and 625 CPM | 113 CPM and 83 CPM | 238 CPM and 215 CPM | 39 CPM and 48 CPM | 1978 CPM and 1768 CPM | 229 CPM and 213 CPM | 
8 | RMRYLVKATPFGHPFFAAGHFHMG [3'-5' HTCA] | 590 CPM | 287 CPM and 299 CPM |  | 191 CPM and 183 CPM |  | 616 CPM and 615 CPM | binding of 125I-ACTH to coated peptide (in words) (I^125 ACTH (1-39)): binds
9 | RVGHFVEAPALRHALLPARHLHVG [R-HTCA] | 2,997 CPM and 3,209 CPM | 140 CPM and 121 CPM | 1,101 CPM and 1,161 CPM | 65 CPM and 69 CPM | 10,392 CPM and 10,709 CPM | 303 CPM and 325 CPM | binding of 125I-ACTH to coated peptide (in words) (I^125 ACTH (1-39)): significant affinity for ACTH
10 | insulin: control coating protein [reference compound] |  |  |  |  |  |  | binding of synthetic ACTH (1-24) to coated wells (ACTH (1-24); 10 ug ACTH (1-24), coating 1 to 25 ug/well): nor does ACTH bind
